Measured values: PubChem BioAssay (NCI)
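Following 48 hours of exposure in 96-well plates, responses at five concentrations were used to interpolate endpoints linearly. TGI is the concentration that stops growth completely.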

Key:
Assay in all cases: inhibition of tumour cell growth, NCI panel, 48 h
SK-MEL-28 melanoma = system: SK-MEL-28 melanoma
SNB-75 CNS = system: SNB-75 CNS
HOP-92 NSCLC = system: HOP-92 NSCLC
CAKI-1 renal = system: CAKI-1 renal
UACC-257 melanoma = system: UACC-257 melanoma
COLO 205 colon = system: COLO 205 colon
SF-539 CNS = system: SF-539 CNS
DU-145 prostate = system: DU-145 prostate
U251 CNS = system: U251 CNS
SK-OV-3 ovarian = system: SK-OV-3 ovarian
EKVX NSCLC = system: EKVX NSCLC
KM12 colon = system: KM12 colon
HL-60(TB) leukemia = system: HL-60(TB) leukemia
HCT-15 colon = system: HCT-15 colon
CCRF-CEM leukemia = system: CCRF-CEM leukemia
NCI-H460 lung = system: NCI-H460 lung
MALME-3M melanoma = system: MALME-3M melanoma
OVCAR-5 ovarian = system: OVCAR-5 ovarian
NCI-H23 lung = system: NCI-H23 lung
MCF7 breast = system: MCF7 breast
SF-268 CNS = system: SF-268 CNS
HCT-116 colon = system: HCT-116 colon
NCI-H226 lung = system: NCI-H226 lung
BT-549 breast = system: BT-549 breast
M14 melanoma = system: M14 melanoma
K-562 leukemia = system: K-562 leukemia
PC-3 prostate = system: PC-3 prostate
SR leukemia = system: SR leukemia
SNB-19 CNS = system: SNB-19 CNS
HT29 colon = system: HT29 colon
OVCAR-4 ovarian = system: OVCAR-4 ovarian
786-0 renal = system: 786-0 renal
NCI-H522 lung = system: NCI-H522 lung
SF-295 CNS = system: SF-295 CNS
NCI/ADR-RES ovarian = system: NCI/ADR-RES ovarian
OVCAR-8 ovarian = system: OVCAR-8 ovarian
OVCAR-3 ovarian = system: OVCAR-3 ovarian
ACHN renal = system: ACHN renal
MDA-N = system: MDA-N
RPMI-8226 leukemia = system: RPMI-8226 leukemia
HOP-62 NSCLC = system: HOP-62 NSCLC
SK-MEL-5 melanoma = system: SK-MEL-5 melanoma
UO-31 renal = system: UO-31 renal
RXF 393 renal = system: RXF 393 renal
A549 NSCLC = system: A549 NSCLC
IGROV1 ovarian = system: IGROV1 ovarian
SK-MEL-2 melanoma = system: SK-MEL-2 melanoma
SN12C renal = system: SN12C renal
HCC-2998 colon = system: HCC-2998 colon
TK-10 renal = system: TK-10 renal
UACC-62 melanoma = system: UACC-62 melanoma
LOX IMVI melanoma = system: LOX IMVI melanoma
SW-620 colon = system: SW-620 colon
MOLT-4 leukemia = system: MOLT-4 leukemia
T-47D breast = system: T-47D breast
MDA-MB-231 breast = system: MDA-MB-231 breast
HS 578T breast = system: HS 578T breast
MDA-MB-435 = system: MDA-MB-435
A498 renal = system: A498 renal

`CCOC(=O)C1OC(=O)CC1C1(C(=O)OCC)C=CC(=O)O1` (configuration not stated) showed a TGI (SK-MEL-28 melanoma) of over 100 µM, a TGI (SNB-75 CNS) of over 100 µM and a TGI (HOP-92 NSCLC) of over 100 µM. It also gave a TGI (CAKI-1 renal) of over 100 µM, a TGI (UACC-257 melanoma) of over 100 µM and a TGI (COLO 205 colon) of over 100 µM. For the same molecule, the TGI (SF-539 CNS) was over 100 µM, the TGI (DU-145 prostate) was over 100 µM and the TGI (U251 CNS) was over 100 µM. It also gave a TGI (SK-OV-3 ovarian) of over 100 µM, a TGI (EKVX NSCLC) of over 100 µM and a TGI (KM12 colon) of over 100 µM. For the same molecule, the TGI (HL-60(TB) leukemia) was over 100 µM, the TGI (HCT-15 colon) was over 100 µM and the TGI (CCRF-CEM leukemia) was over 100 µM. The TGI (NCI-H460 lung) was 58.1 µM, the TGI (MALME-3M melanoma) was over 100 µM and the TGI (OVCAR-5 ovarian) was over 100 µM. The TGI (NCI-H23 lung) was over 100 µM, the TGI (MCF7 breast) was over 100 µM and the TGI (SF-268 CNS) was over 100 µM. For the same molecule, the TGI (HCT-116 colon) was over 100 µM, the TGI (NCI-H226 lung) was over 100 µM and the TGI (BT-549 breast) was over 100 µM. It also gave a TGI (M14 melanoma) of over 100 µM, a TGI (K-562 leukemia) of over 100 µM and a TGI (PC-3 prostate) of over 100 µM. It also gave a TGI (SR leukemia) of over 100 µM, a TGI (SNB-19 CNS) of over 100 µM and a TGI (HT29 colon) of over 100 µM. The TGI (OVCAR-4 ovarian) was over 100 µM, the TGI (786-0 renal) was over 100 µM and the TGI (NCI-H522 lung) was over 100 µM. It also gave a TGI (SF-295 CNS) of over 100 µM, a TGI (NCI/ADR-RES ovarian) of over 100 µM and a TGI (OVCAR-8 ovarian) of over 100 µM. For the same molecule, the TGI (OVCAR-3 ovarian) was over 100 µM, the TGI (ACHN renal) was over 100 µM and the TGI (MDA-N) was over 100 µM. For the same molecule, the TGI (RPMI-8226 leukemia) was over 100 µM, the TGI (HOP-62 NSCLC) was over 100 µM and the TGI (SK-MEL-5 melanoma) was over 100 µM. For the same molecule, the TGI (UO-31 renal) was over 100 µM, the TGI (RXF 393 renal) was over 100 µM and the TGI (A549 NSCLC) was over 100 µM. The TGI (IGROV1 ovarian) was over 100 µM, the TGI (SK-MEL-2 melanoma) was over 100 µM and the TGI (SN12C renal) was over 100 µM. The TGI (HCC-2998 colon) was over 100 µM, the TGI (TK-10 renal) was over 100 µM and the TGI (UACC-62 melanoma) was over 100 µM. It also gave a TGI (LOX IMVI melanoma) of 93.3 µM, a TGI (SW-620 colon) of over 100 µM and a TGI (MOLT-4 leukemia) of over 100 µM.
Molecule `COC(=O)Cc1cc2c(cc1C(=O)c1ccc(N)cc1)OCO2` has a TGI (T-47D breast) of over 100 µM, a TGI (SK-MEL-28 melanoma) of over 100 µM and a TGI (SNB-75 CNS) of 5.84 µM. The TGI (HOP-92 NSCLC) was 61 µM, the TGI (CAKI-1 renal) was over 100 µM and the TGI (UACC-257 melanoma) was over 100 µM. For the same molecule, the TGI (COLO 205 colon) was 10 µM, the TGI (MDA-MB-231 breast) was over 30.9 µM and the TGI (SF-539 CNS) was over 27.2 µM. It also gave a TGI (DU-145 prostate) of over 39.1 µM, a TGI (U251 CNS) of over 100 µM and a TGI (SK-OV-3 ovarian) of over 29.2 µM. It also gave a TGI (EKVX NSCLC) of over 100 µM, a TGI (KM12 colon) of over 100 µM and a TGI (HL-60(TB) leukemia) of over 26.2 µM. For the same molecule, the TGI (HCT-15 colon) was over 37.7 µM, the TGI (CCRF-CEM leukemia) was 8 µM and the TGI (NCI-H460 lung) was over 100 µM. The TGI (MALME-3M melanoma) was over 100 µM, the TGI (OVCAR-5 ovarian) was 83.3 µM and the TGI (NCI-H23 lung) was over 100 µM. It also gave a TGI (MCF7 breast) of over 100 µM, a TGI (SF-268 CNS) of over 30.7 µM and a TGI (HCT-116 colon) of over 45.9 µM. It also gave a TGI (NCI-H226 lung) of over 100 µM, a TGI (HS 578T breast) of over 25.4 µM and a TGI (MDA-MB-435) of 0.667 µM. It also gave a TGI (BT-549 breast) of over 20.3 µM, a TGI (A498 renal) of over 27.4 µM and a TGI (M14 melanoma) of over 100 µM. For the same molecule, the TGI (K-562 leukemia) was over 100 µM, the TGI (PC-3 prostate) was over 27.2 µM and the TGI (SNB-19 CNS) was over 82.8 µM. The TGI (HT29 colon) was 3.99 µM, the TGI (OVCAR-4 ovarian) was over 100 µM and the TGI (786-0 renal) was over 100 µM. For the same molecule, the TGI (NCI-H522 lung) was 1.01 µM, the TGI (SF-295 CNS) was 5.33 µM and the TGI (NCI/ADR-RES ovarian) was 15.3 µM. The TGI (OVCAR-8 ovarian) was over 34.5 µM, the TGI (OVCAR-3 ovarian) was 6.99 µM and the TGI (ACHN renal) was over 100 µM. The TGI (MDA-N) was 1.43 µM, the TGI (RPMI-8226 leukemia) was 6.08 µM and the TGI (HOP-62 NSCLC) was over 100 µM. The TGI (SK-MEL-5 melanoma) was 4.49 µM, the TGI (UO-31 renal) was over 100 µM and the TGI (RXF 393 renal) was over 23.9 µM. It also gave a TGI (A549 NSCLC) of over 77.8 µM, a TGI (IGROV1 ovarian) of 13 µM and a TGI (SK-MEL-2 melanoma) of 5.36 µM. It also gave a TGI (SN12C renal) of over 100 µM, a TGI (HCC-2998 colon) of 3.58 µM and a TGI (TK-10 renal) of over 100 µM. For the same molecule, the TGI (UACC-62 melanoma) was over 55 µM, the TGI (LOX IMVI melanoma) was over 100 µM and the TGI (SW-620 colon) was over 100 µM. It also gave a TGI (MOLT-4 leukemia) of 33.8 µM.
